Data taken from patent US7790895B2, “Quinoline derivatives as potassium ion channel openers” (Janssen Pharmaceutica NV, priority 2005, dated 2010).

Molecular target: T1, KATP channels (Homo sapiens, UniProt O60706)
T1 construct: TE671 human medulloblastoma cells were obtained from ATCC; host or cells: TE671 human medulloblastoma cells
Assay: Potassium Channel Assay (FLIPR membrane potential, KATP channel opening)
Assay type: cell-based
Settings: TE671 human medulloblastoma cells, Membrane Potential Assay Dye, room temperature
Procedure: TE671 human medulloblastoma cells were obtained from ATCC and grown in Dulbecco's modified Eagle's medium (DMEM) supplemented with 10% fetal bovine serum, 100 U/ml penicillin and 100 U/ml streptomycine.
The day before testing, the cells were plated in black 96-well plates at 50K/well. On the day of testing, the growth media was removed, then 100 μl of FLIPR buffer (20 mM HEPES, 120 mM NaCl, 2 mM KCl, 2 mM CaCl2, 1 mM MgCl2, 5 mM Glucose) and 100 μl of Membrane Potential Assay Dye (Molecular Devices) dissolved in FLIPR buffer were added to each well. The cells were incubated at room temperature for 15 to 30 min.
The effect of test compounds on KATP channels were evaluated on a fluorometric imaging plate reader (FLIPR, Molecular Devices) at room temperature. After a baseline period, 50 μl of 5× stock solution of test compound prepared in FLIPR buffer was added and fluorescence change was monitored for 3 minutes. After this reading, glyburide, a KATP channel blocker, was added to a final concentration of 5 μM to check the specificity of the test compound as a KATP channel opener. Hyperpolarization resulting from KATP channel opening was observed as a decrease in fluorescence intensity.

T1 sequence (O60706 1-1549 isoform O60706-2): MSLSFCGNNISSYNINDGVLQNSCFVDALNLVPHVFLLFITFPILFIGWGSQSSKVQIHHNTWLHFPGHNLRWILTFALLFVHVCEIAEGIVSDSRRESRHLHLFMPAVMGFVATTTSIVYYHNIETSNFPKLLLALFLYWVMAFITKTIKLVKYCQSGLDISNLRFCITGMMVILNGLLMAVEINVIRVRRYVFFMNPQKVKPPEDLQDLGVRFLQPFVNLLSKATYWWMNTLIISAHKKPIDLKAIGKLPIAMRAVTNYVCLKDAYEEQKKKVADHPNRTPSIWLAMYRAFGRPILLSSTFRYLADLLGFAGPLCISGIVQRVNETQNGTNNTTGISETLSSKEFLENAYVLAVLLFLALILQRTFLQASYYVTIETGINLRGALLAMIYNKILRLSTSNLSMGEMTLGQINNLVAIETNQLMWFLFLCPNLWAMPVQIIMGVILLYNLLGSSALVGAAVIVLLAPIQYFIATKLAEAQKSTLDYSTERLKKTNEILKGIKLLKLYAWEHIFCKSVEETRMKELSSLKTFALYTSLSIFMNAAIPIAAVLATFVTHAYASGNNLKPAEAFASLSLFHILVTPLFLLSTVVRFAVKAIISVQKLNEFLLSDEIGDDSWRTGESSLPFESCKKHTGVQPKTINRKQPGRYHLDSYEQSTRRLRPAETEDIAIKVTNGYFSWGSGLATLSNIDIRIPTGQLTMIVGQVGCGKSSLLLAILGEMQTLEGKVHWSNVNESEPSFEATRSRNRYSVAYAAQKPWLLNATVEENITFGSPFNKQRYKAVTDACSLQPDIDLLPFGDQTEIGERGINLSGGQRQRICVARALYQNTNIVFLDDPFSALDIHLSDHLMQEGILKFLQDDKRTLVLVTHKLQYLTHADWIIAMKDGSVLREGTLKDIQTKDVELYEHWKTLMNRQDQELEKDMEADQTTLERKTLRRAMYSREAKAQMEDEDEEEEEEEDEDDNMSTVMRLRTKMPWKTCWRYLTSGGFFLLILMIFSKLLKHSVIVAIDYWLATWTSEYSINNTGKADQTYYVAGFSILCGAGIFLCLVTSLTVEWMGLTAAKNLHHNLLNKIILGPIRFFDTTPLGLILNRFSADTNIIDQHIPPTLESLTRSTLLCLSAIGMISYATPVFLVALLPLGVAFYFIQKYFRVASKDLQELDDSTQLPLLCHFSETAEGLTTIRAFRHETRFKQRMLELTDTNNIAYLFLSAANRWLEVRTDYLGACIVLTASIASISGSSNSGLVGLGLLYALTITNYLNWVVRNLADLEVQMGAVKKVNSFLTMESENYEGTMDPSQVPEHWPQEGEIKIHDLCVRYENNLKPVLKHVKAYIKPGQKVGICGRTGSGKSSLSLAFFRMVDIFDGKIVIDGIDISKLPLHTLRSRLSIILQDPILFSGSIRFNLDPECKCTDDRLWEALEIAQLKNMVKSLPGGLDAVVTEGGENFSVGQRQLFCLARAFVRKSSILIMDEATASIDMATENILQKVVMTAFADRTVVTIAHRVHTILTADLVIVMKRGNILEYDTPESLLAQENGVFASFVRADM
T1 sequence (Q14654 whole entry partner): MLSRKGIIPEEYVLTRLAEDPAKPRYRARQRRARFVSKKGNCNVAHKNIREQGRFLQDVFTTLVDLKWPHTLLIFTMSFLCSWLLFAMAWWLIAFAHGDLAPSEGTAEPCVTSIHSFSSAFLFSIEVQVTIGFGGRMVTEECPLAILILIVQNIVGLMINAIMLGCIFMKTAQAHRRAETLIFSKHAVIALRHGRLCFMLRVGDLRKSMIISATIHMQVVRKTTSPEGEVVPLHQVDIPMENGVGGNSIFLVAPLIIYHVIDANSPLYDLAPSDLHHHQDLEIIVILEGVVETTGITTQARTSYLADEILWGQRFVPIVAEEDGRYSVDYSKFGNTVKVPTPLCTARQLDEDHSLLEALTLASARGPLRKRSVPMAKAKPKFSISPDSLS

SMILES	EC50
CCOC(=O)c1cnc2cc(C(F)(F)F)ccc2c1-c1cccc(C#N)c1 [Compound 1, 4-(3-Cyano-phenyl)-7-trifluoromethyl-quinoline-3-carboxylic acid ethyl ester]	> 30 µM
CCOC(=O)c1cnc2cc(C(F)(F)F)ccc2c1-c1cc(C)cc(OC)c1 [Compound 2, 4-(3-Methoxy-5-methyl-phenyl)-7-trifluoromethyl-quinoline-3-carboxylic acid ethyl ester]	> 30 µM
CCOC(=O)c1cnc2cc(C(F)(F)F)ccc2c1-c1cc(C(F)(F)F)cc(C(F)(F)F)c1 [Compound 3, 4-(3,5-Bis-trifluoromethyl-phenyl)-7-trifluoromethyl-quinoline-3-carboxylic acid-ethyl ester]	> 30 µM
CCOC(=O)c1ccc(-c2c(C(=O)OCC)cnc3cc(C(F)(F)F)ccc23)cc1 [Compound 4, 4-(4-Ethoxycarbonyl-phenyl)-7-trifluoromethyl-quinoline-3-carboxylic acid ethyl ester]	> 30 µM
CCOC(=O)c1cnc2cc(C(F)(F)F)ccc2c1-c1ccc(-c2ccccc2)cc1 [Compound 5, 4-Biphenyl-4-yl-7-trifluoromethyl-quinoline-3-carboxylic acid ethyl ester]	> 30 µM
CCOC(=O)c1cnc2cc(C(F)(F)F)ccc2c1-c1ccccc1 [Compound 6, 4-Phenyl-7-trifluoromethyl-quinoline-3-carboxylic acid ethyl ester]	> 30 µM
CCOC(=O)c1cnc2cc(C(F)(F)F)ccc2c1-c1cccc(C(C)=O)c1 [Compound 7, 4-(3-Acetyl-phenyl)-7-trifluoromethyl-quinoline-3-carboxylic acid ethyl ester]	> 30 µM
CCOC(=O)c1cnc2cc(C(F)(F)F)ccc2c1-c1cc(C(F)(F)F)ccc1F [Compound 8, 4-(2-Fluoro-5-trifluoromethyl-phenyl)-7-trifluoromethyl-quinoline-3-carboxylic acid ethyl ester]	> 30 µM
CCOC(=O)c1cnc2cc(C(F)(F)F)ccc2c1-c1cc(C=O)ccc1OC [Compound 9, 4-(5-Formyl-2-methoxy-phenyl)-7-trifluoromethyl-quinoline-3-carboxylic acid ethyl ester]	7.73 µM
CCOC(=O)c1cnc2cc(C(F)(F)F)ccc2c1-c1cccc(C(F)(F)F)c1 [Compound 10, 7-Trifluoromethyl-4-(3-trifluoromethyl-phenyl)-quinoline-3-carboxylic acid ethyl ester]	> 30 µM
CCOC(=O)c1cnc2cc(C(F)(F)F)ccc2c1-c1cccc(C=O)c1 [Compound 11, 4-(3-Formyl-phenyl)-7-trifluoromethyl-quinoline-3-carboxylic acid ethyl ester]	> 30 µM
CCOC(=O)c1cnc2cc(C(F)(F)F)ccc2c1-c1cccc(CO)c1 [Compound 12, 4-(3-Hydroxymethyl-phenyl)-7-trifluoromethyl-quinoline-3-carboxylic acid ethyl ester]	> 30 µM
CCOC(=O)c1cnc2cc(C(F)(F)F)ccc2c1-c1ccc(C)c(C)c1 [Compound 13, 4-(3,4-Dimethyl-phenyl)-7-trifluoromethyl-quinoline-3-carboxylic acid ethyl ester]	> 30 µM
CCOC(=O)c1cnc2cc(C(F)(F)F)ccc2c1-c1cc(CO)ccc1OC [Compound 14, 4-(5-Hydroxymethyl-2-methoxy-phenyl)-7-trifluoromethyl-quinoline-3-carboxylic acid ethyl ester]	4.56 µM
CCOC(=O)c1cnc2cc(C(F)(F)F)ccc2c1OS(=O)(=O)C(F)(F)F [Compound 15, 4-Trifluoromethanesulfonyloxy-7-trifluoromethyl-quinoline-3-carboxylic acid ethyl ester]	6.27 µM
N#Cc1cccc(-c2ccncc2C(O)c2ccccc2)c1 (stereo not shown) [Compound 19, 3-[3-(Hydroxy-phenyl-methyl)-pyridin-4-yl]-benzonitrile]	9.63 µM
N#Cc1cccc(-c2ccncc2C(O)c2ccc(F)cc2)c1 (stereo not shown) [Compound 20, 3-{3-[(4-Fluoro-phenyl)-hydroxy-methyl]-pyridin-4-yl}-benzonitrile]	19.4 µM
N#Cc1cccc(-c2ccncc2C(O)c2cccc(F)c2)c1 (stereo not shown) [Compound 21, 3-{3-[(3-Fluoro-phenyl)-hydroxy-methyl]-pyridin-4-yl}-benzonitrile]	23.2 µM
Cc1ccc(C(O)c2cnccc2-c2cccc(C#N)c2)cc1F (stereo not shown) [Compound 22, 3-{3-[(3-Fluoro-4-methyl-phenyl)-hydroxy-methyl]-pyridin-4-yl}-benzonitrile]	15.1 µM
N#Cc1cccc(-c2ccncc2C(O)c2ccc(F)c(F)c2)c1 (stereo not shown) [Compound 23, 3-{3-[(3,4-Difluoro-phenyl)-hydroxy-methyl]-pyridin-4-yl}-benzonitrile]	11.4 µM
N#Cc1cccc(-c2ccncc2C(O)c2ccc(Cl)c(Cl)c2)c1 (stereo not shown) [Compound 24, 3-{3-[(3,4-Dichloro-phenyl)-hydroxy-methyl]-pyridin-4-yl}-benzonitrile]	14.5 µM

SMILES	EC50
N#Cc1cccc(-c2ccncc2C(O)c2cc(Cl)cc(Cl)c2)c1 (stereo not shown) [Compound 25, 3-{3-[(3,5-Dichloro-phenyl)-hydroxy-methyl]-pyridin-4-yl}-benzonitrile]	9.82 µM
N#Cc1cccc(-c2ccncc2C(O)c2ccc(Cl)cc2)c1 (stereo not shown) [Compound 26, 3-{3-[(4-Chloro-phenyl)-hydroxy-methyl]-pyridin-4-yl}-benzonitrile]	10.2 µM
CC(C)(C)c1ccc(C(O)c2cnccc2-c2cccc(C#N)c2)cc1 (stereo not shown) [Compound 27, 3-{3-[(4-tert-Butyl-phenyl)-hydroxy-methyl]-pyridin-4-yl}-benzonitrile]	10.7 µM
COc1ccccc1C(O)c1cnccc1-c1cccc(C#N)c1 (stereo not shown) [Compound 28, 3-{3-[Hydroxy-(2-methoxy-phenyl)-methyl]-pyridin-4-yl}-benzonitrile]	10.2 µM
COc1cccc(C(O)c2cnccc2-c2cccc(C#N)c2)c1 (stereo not shown) [Compound 29, 3-{3-[Hydroxy-(3-methoxy-phenyl)-methyl]-pyridin-4-yl}-benzonitrile]	13.7 µM
COc1ccc(C(O)c2cnccc2-c2cccc(C#N)c2)cc1 (stereo not shown) [Compound 30, 3-{3-[Hydroxy-(4-methoxy-phenyl)-methyl]-pyridin-4-yl}-benzonitrile]	> 30 µM
Cc1ccccc1C(O)c1cnccc1-c1cccc(C#N)c1 (stereo not shown) [Compound 31, 3-{3-[Hydroxy-(2-methyl-phenyl)-methyl]-pyridin-4-yl}-benzonitrile]	15 µM
Cc1ccc(C(O)c2cnccc2-c2cccc(C#N)c2)cc1 (stereo not shown) [Compound 32, 3-{3-[Hydroxy-(4-methyl-phenyl)-methyl]-pyridin-4-yl}-benzonitrile]	8.48 µM
CSc1ccc(C(O)c2cnccc2-c2cccc(C#N)c2)cc1 (stereo not shown) [Compound 34, 3-{3-[Hydroxy-(4-methylsulfanyl-phenyl)-methyl]-pyridin-4-yl}-benzonitrile]	20.8 µM
Cc1cc(C)c(C(O)c2cnccc2-c2cccc(C#N)c2)c(C)c1 (stereo not shown) [Compound 35, 3-{3-[Hydroxy-(2,4,6-trimethyl-phenyl)-methyl]-pyridin-4-yl}-benzonitrile]	> 30 µM
COc1ccc(F)cc1C(O)c1cnccc1-c1cccc(C#N)c1 (stereo not shown) [Compound 36, 3-{3-[(5-Fluoro-2-methoxy-phenyl)-hydroxy-methyl]-pyridin-4-yl}-benzonitrile]	> 30 µM
COc1ccc(C(O)c2cnccc2-c2cccc(C#N)c2)cc1F (stereo not shown) [Compound 37, 3-{3-[(3-Fluoro-4-methoxy-phenyl)-hydroxy-methyl]-pyridin-4-yl}-benzonitrile]	9.59 µM
Cc1ccc(F)cc1C(O)c1cnccc1-c1cccc(C#N)c1 (stereo not shown) [Compound 38, 3-{3-[(5-Fluoro-2-methyl-phenyl)-hydroxy-methyl]-pyridin-4-yl}-benzonitrile]	> 30 µM
N#Cc1cccc(-c2ccncc2C(O)C(F)(F)F)c1 (stereo not shown) [Compound 39, 3-[3-(2,2,2-Trifluoro-1-hydroxy-ethyl)-pyridin-4-yl]-benzonitrile]	10.5 µM
O=C(c1ccccc1)c1ccncc1C(O)c1ccccc1 (stereo not shown) [Compound 43, [3-(Hydroxy-phenyl-methyl)-pyridin-4-yl]-phenyl-methanone]	17.4 µM
CN(C)c1ccc(C(O)c2cnccc2C(=O)c2ccccc2)cc1 (stereo not shown) [Compound 44, {3-[(4-Dimethylamino-phenyl)-hydroxy-methyl]-pyridin-4-yl}-phenyl-methanone]	17.4 µM
COc1ccc(C(O)c2cnccc2C(=O)c2ccccc2)cc1F (stereo not shown) [Compound 45, {3-[(3-Fluoro-4-methoxy-phenyl)-hydroxy-methyl]-pyridin-4-yl}-phenyl-methanone]	11.6 µM
COc1ccc(OC)c(C(O)c2cnccc2C(=O)c2ccccc2)c1 (stereo not shown) [Compound 46, {3-[(2,5-Dimethoxy-phenyl)-hydroxy-methyl]-pyridin-4-yl}-phenyl-methanone]	12.1 µM
O=C(c1ccccc1)c1ccncc1C(O)c1cccc(F)c1 (stereo not shown) [Compound 47, {3-[(3-Fluoro-phenyl)-hydroxy-methyl]-pyridin-4-yl}-phenyl-methanone]	5.09 µM
N#Cc1cccc(C(=O)c2ccncc2C(O)c2ccccc2)c1 (stereo not shown) [Compound 48, 3-[3-(Hydroxy-phenyl-methyl)-pyridine-4-carbonyl]-benzonitrile]	14.3 µM

Same assay, conditions: TE671 human medulloblastoma cells, Membrane Potential Assay Dye, room temperature, test concentration not given

SMILES	% Stimulation
CCOC(=O)c1cnc2cc(C(F)(F)F)ccc2c1-c1cccc(C(C)=O)c1 [Compound 7, 4-(3-Acetyl-phenyl)-7-trifluoromethyl-quinoline-3-carboxylic acid ethyl ester]	2%
CCOC(=O)c1cnc2cc(C(F)(F)F)ccc2c1-c1cccc(C=O)c1 [Compound 11, 4-(3-Formyl-phenyl)-7-trifluoromethyl-quinoline-3-carboxylic acid ethyl ester]	2%
CCOC(=O)c1cnc2cc(C(F)(F)F)ccc2c1-c1cccc(CO)c1 [Compound 12, 4-(3-Hydroxymethyl-phenyl)-7-trifluoromethyl-quinoline-3-carboxylic acid ethyl ester]	20%
CCOC(=O)c1cnc2cc(C(F)(F)F)ccc2c1-c1ccc(C)c(C)c1 [Compound 13, 4-(3,4-Dimethyl-phenyl)-7-trifluoromethyl-quinoline-3-carboxylic acid ethyl ester]	0%
COc1ccc(C(O)c2cnccc2-c2cccc(C#N)c2)cc1 (stereo not shown) [Compound 30, 3-{3-[Hydroxy-(4-methoxy-phenyl)-methyl]-pyridin-4-yl}-benzonitrile]	7%
